This assay deals with T1, AlaRS R326W binding to GST-Nrp1 b1 (Homo sapiens, UniProt P49588, R326W).
T1 construct: made in house; host or cells: E. coli BL21 (DE3), pET-21a for AlaRS
T1 sequence (P49588 1-968 R326W): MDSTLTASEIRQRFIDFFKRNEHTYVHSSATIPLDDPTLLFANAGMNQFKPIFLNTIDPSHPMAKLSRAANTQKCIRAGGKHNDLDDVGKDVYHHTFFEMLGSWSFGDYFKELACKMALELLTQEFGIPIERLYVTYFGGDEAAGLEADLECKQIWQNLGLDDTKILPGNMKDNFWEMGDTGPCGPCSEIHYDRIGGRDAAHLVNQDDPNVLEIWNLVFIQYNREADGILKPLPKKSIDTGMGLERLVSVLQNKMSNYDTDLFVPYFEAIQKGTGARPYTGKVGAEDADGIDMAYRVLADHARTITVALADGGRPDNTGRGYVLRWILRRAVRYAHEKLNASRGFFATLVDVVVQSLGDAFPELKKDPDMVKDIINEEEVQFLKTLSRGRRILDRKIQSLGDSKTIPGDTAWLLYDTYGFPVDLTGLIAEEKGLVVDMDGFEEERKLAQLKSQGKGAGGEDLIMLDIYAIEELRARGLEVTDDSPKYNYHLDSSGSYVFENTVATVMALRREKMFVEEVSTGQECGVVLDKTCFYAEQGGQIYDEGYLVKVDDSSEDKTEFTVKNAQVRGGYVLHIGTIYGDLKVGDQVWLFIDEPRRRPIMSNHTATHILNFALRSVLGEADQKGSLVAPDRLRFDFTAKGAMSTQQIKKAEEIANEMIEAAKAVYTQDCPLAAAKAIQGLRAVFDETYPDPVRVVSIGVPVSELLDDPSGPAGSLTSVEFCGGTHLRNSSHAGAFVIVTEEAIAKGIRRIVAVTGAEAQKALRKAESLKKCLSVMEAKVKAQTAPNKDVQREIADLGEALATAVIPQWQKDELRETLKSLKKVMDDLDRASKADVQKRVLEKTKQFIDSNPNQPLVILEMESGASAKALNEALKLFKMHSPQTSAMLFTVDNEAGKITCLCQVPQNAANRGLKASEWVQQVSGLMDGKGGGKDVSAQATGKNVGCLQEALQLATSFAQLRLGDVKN
Briefly: GST pull down assay. As to conditions: 20 µM Tanshinone I, ImageJ, average of three repeats. How it is done:
To further investigate whether Tanshinone I-induced conformational changes in AlaRS CMT mutants affect their interaction with Nrp1, Co-IP experiments were performed in cells treated with Tanshinone I. By comparing Co-IP results obtained before and after treatment, we assessed the influence of the drug on the binding strength and mode between the AlaRS CMT mutants and Nrp1. […] To confirm the direct effect of Tanshinone I on the interaction between AlaRS CMT mutants and Nrp1, pull-down experiments were performed. […] Given that the interaction between AlaRS mutants and Nrp1 is associated with disease progression in CMT, the ability of Tanshinone I to disrupt this binding highlights its potential to intervene in the pathogenic mechanisms of these diseases.
Figure 7 The impact of Tanshinone I on the interaction between AlaRS mutants and Nrp1. (A) Co-IP assays were conducted to assess the binding between HA-AlaRS mutants and Nrp1, both with and without treatment with 20 µM Tanshinone I for 24 h. […] (C) Pull down assay was performed to detect the binding between AlaRS mutants and GST-Nrp1 b1 with or without 20 µM Tanshinone I. (D) Relative quantification statistics of the AlaRS mutants pulled down from the GST pull down experiments after Tanshinone I treatment were performed using ImageJ. (E) The cell viability of 293T and NSC34 cells treated with different concentrations of Tanshinone I was assessed using the CCK-8 assay over a 24 h period. TEXT PRINTED IN THE PICTURE: (B) Tanshinone I: Mean density band (N71Y): 0.60; Mean density band (G102R): 0.53; Mean density band (R326W): 0.50; Mean density band (R329H): 0.50; Mean density band (E337K): 0.62 | (D) Tanshinone I: Mean density band (N71Y): 0.82; Mean density band (G102R): 0.76; Mean density band (R326W): 0.84; Mean density band (R329H): 0.84; Mean density band (E337K): 0.90
To detect the direct interactions between the mutant proteins and Nrp1 in vitro, we performed a Glutathione S-transferase (GST) pull-down assay. AlaRS mutants fused with 6 × His were purified with Ni-NTA beads, followed by chromatography on a HiTrap Q HP column. Nrp1 b1 fragments fused with GST were purified with Glutathione Beads (#SA008100, Smart-Lifesciences, Changzhou, China). For GST pull-down assays, 1000 μg of each GST-fused Nrp1 b1 fragment was mixed with 200 μg of 6 × His-tagged fusion protein in binding buffer (50 mM Tris-HCl pH 7.5, 20 mM NaCl, 5% glycerol, 5 mM DTT with 0.1% BSA) at 4 °C overnight. The mixture was next incubated with 30 μL glutathione beads at 4 °C with constant rotation for 2–4 h. Subsequently, the bead/protein complex was washed three times, and eluted with 30 μL 2 × SDS sample buffer. The samples were then subjected to SDS-PAGE analysis. The experiment was repeated three times.

This is an account of results in article PMC11509018, “Evaluation of the Role of Tanshinone I in an In Vitro System of Charcot-Marie-Tooth Disease Type 2N” (International Journal of Molecular Sciences, 2024).

Consider `Cc1coc2c1C(=O)C(=O)c1c-2ccc2c(C)cccc12` [Tanshinone I], for which the “Mean density band (R326W), relative quantification of AlaRS mutant pulled down” value is given as 0.84.
